“And” between values parts separate entries of the source, which are not always exact repeats. Identical values can stand only once.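 Results reflect a 48-hour exposure of cells in 96-well plates to compound at five concentrations. GI50 = concentration required for 50% inhibition of growth. TGI is the concentration that stops growth completely.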
Assays:
Test in all cases: growth of human tumour cells (NCI), 48 h
[1] = test system: CAKI-1 renal
[2] = test system: IGROV1 ovarian
[3] = test system: LOX IMVI melanoma
[4] = test system: M14 melanoma
[5] = test system: NCI-H522 lung
[6] = test system: SF-268 CNS
[7] = test system: SK-MEL-28 melanoma
[8] = test system: SNB-75 CNS
[9] = test system: UACC-257 melanoma
[10] = test system: UO-31 renal
[11] = test system: DU-145 prostate
[12] = test system: MDA-MB-231 breast
[13] = test system: NCI-H226 lung
[14] = test system: NCI-H460 lung

| SMILES | TGI [1] | TGI [2] | TGI [3] | TGI [4] | TGI [5] | TGI [6] | TGI [7] | TGI [8] | TGI [9] | TGI [10] | TGI [11] | TGI [12] | TGI [13] | TGI [14] | GI50 [4] | GI50 [10] | GI50 [5] | GI50 [6] | GI50 [8] | GI50 [9] |
| --- | --- | --- | --- | --- | --- | --- | --- | --- | --- | --- | --- | --- | --- | --- | --- | --- | --- | --- | --- | --- |
| Cc1[nH]nc(N)c1C(N)=O | > 100 µM | > 100 µM | > 100 µM | > 100 µM | > 100 µM | > 100 µM | > 100 µM | > 100 µM | > 100 µM | > 100 µM |  |  |  |  |  |  |  |  |  |  |
| CC(=O)NC(CCC(=O)C=[N+]=N)C(=O)O (stereo not given) |  | > 100 µM | > 100 µM | > 100 µM | > 100 µM | > 100 µM | > 100 µM | > 100 µM | > 100 µM | > 100 µM | > 100 µM | > 100 µM | > 100 µM | > 100 µM |  |  |  |  |  |  |
| OC1CCOc2ccccc21 (stereo not given) | > 100 µM | > 100 µM | > 100 µM | > 100 µM | > 100 µM | > 100 µM | > 100 µM |  |  | > 100 µM |  |  | > 100 µM | > 100 µM |  |  |  |  |  |  |
| CCCC(=O)NC1CCc2cc(OC)c(OC)c(OC)c2-c2ccc(OC)c(=O)cc21 (stereo not given) |  | > 100 µM | > 100 µM | > 100 µM |  | > 100 µM | > 100 µM | > 100 µM |  | 75.9 µM | 0.0114 µM |  |  | > 100 µM | > 100 µM | 0.138 µM |  |  |  |  |
| CCOC(=O)c1c(Cl)nc2ccccc2c1N=[N+]=[N-] | 43.4 µM | 46.9 µM | 39.3 µM | 34.1 µM | 31.4 µM | 30.5 µM | > 100 µM |  | 53.4 µM | 36.5 µM |  | 30.1 µM | > 100 µM | 63.6 µM |  |  |  |  |  |  |
| S=C1CC(c2ccccc2)Sc2ccccc2N1 (stereo not given) | > 100 µM | > 100 µM | > 100 µM | > 100 µM | > 100 µM | > 100 µM | > 100 µM | > 100 µM | > 100 µM | > 100 µM | > 100 µM | > 100 µM | > 100 µM | > 100 µM |  |  |  |  |  |  |
| O=S(=O)(O)c1ccc(N=Nc2c(O)ccc3cc(Br)ccc23)cc1 | > 100 µM | > 100 µM | > 100 µM | > 100 µM | > 100 µM | > 100 µM | > 100 µM | > 100 µM | > 100 µM | > 100 µM | > 100 µM | > 100 µM |  |  |  |  |  |  |  |  |
| CC1CCC2(C(=O)O)CCC3(C)C(=CCC4C5(C)CCC(O)C(C)(C)C5CCC43C)C2C1C (stereo not given) | 16.6 µM and 17.5 µM | 26.9 µM and 33.2 µM | 17.2 µM and > 100 µM | 4.28 µM | 17.8 µM and 28.9 µM | 17.7 µM and 24.6 µM |  | 16.5 µM and 30.4 µM | 13.7 µM and 32.6 µM | 16.6 µM and 14.5 µM | 21.6 µM | 26.2 µM | 18.7 µM and 37.7 µM | 24.8 µM |  |  | 6.98 µM and 14.4 µM | 1.29 µM and 10.7 µM | 1.52 µM and 13.3 µM | 4.8 µM and 12.1 µM |
| CNC(=O)SCC(N)C(=O)O (stereo not given) | > 100 µM | > 100 µM | > 89.3 µM |  | > 100 µM | > 100 µM | > 100 µM | > 100 µM | > 100 µM | > 100 µM |  |  | > 100 µM | > 100 µM |  |  |  |  |  |  |
| CC1CC[C@@]2(OC1)OC1CC3C4CCC5C[C@@H](OC6OC(CO)C(OC7OC(CO)C(O)C(OC8OC(CO)C(O)C(OC9OC(CO)C(O)C(O)C9O)C8O)C7OC7OC(CO)C(O)C(O)C7O)C(O)C6O)[C@H](O)C[C@]5(C)C4CC[C@]3(C)C1[C@@H]2C (stereo not given in full) | > 80.5 µM |  | > 80.5 µM | > 80.5 µM |  | > 80.5 µM | > 80.5 µM | > 80.5 µM | > 80.5 µM |  | > 80.5 µM | > 80.5 µM | > 80.5 µM | > 80.5 µM |  |  |  |  |  |  |
| C/C=C/C1=CC(=O)C(O)C1O (stereo not given) | 43.7 µM | 141 µM | 83 µM |  | 15.5 µM | 91.2 µM | 97.9 µM | 67.5 µM | 97.4 µM | 106 µM |  |  | 62.5 µM | 51.4 µM |  |  |  |  |  |  |
| COC1C=COC2(C)Oc3c(C)c(O)c4c(O)c(c(/C=N/N5CCN(N)CC5)c(O)c4c3C2=O)NC(=O)C(C)=CC=CC(C)C(O)C(C)C(O)C(C)C(OC(C)=O)C1C (stereo not given) | > 100 µM | > 100 µM | > 100 µM | > 100 µM | 78.2 µM | > 100 µM | > 100 µM | > 100 µM | > 100 µM | > 100 µM |  |  | > 100 µM |  |  |  |  |  |  |  |
| CC1(C)Cc2c(C#N)c(N)c3c(c2CO1)C(=O)OC3=O | > 100 µM | > 100 µM | > 100 µM | > 100 µM | > 100 µM | > 100 µM | > 100 µM |  |  | > 100 µM |  |  | > 100 µM | > 100 µM |  |  |  |  |  |  |
| CCC(=O)c1ccc2[nH]c3c(C)c4c(=O)cc(C)[nH]c4c(C)c3c2c1 | > 100 µM | > 100 µM | > 100 µM | > 100 µM | > 100 µM | > 100 µM | > 100 µM | > 100 µM | > 100 µM | > 100 µM | > 100 µM | > 100 µM | > 100 µM | > 100 µM |  |  |  |  |  |  |
| CC(=O)NC(c1nc2cc(C)c(C)cc2[nH]1)c1nc2cc(C)c(C)cc2[nH]1 | 52.2 µM | 58.9 µM | 59.1 µM | > 100 µM | 18 µM | > 100 µM | 53.4 µM | 50.7 µM | 71.1 µM | 53.2 µM | 57.7 µM | 76 µM |  | 32.8 µM |  |  |  |  |  |  |
